Several values for one entry are separate records, joined by “and”; a condition that tells them apart may be missing. Equal entries are not always repeated.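 Each compound was tested at five concentrations against cells in 96-well plates for 48 hours. GI50 = concentration required for 50% inhibition of growth. TGI marks complete inhibition of growth.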
How the values were obtained:
Experiment in all cases: NCI anticancer screen, dose series, 48 h
M14 melanoma = tested on: M14 melanoma
SNB-19 CNS = tested on: SNB-19 CNS
SF-539 CNS = tested on: SF-539 CNS
CAKI-1 renal = tested on: CAKI-1 renal
HCC-2998 colon = tested on: HCC-2998 colon
KM12 colon = tested on: KM12 colon
UACC-257 melanoma = tested on: UACC-257 melanoma
RPMI-8226 leukemia = tested on: RPMI-8226 leukemia
NCI-H23 lung = tested on: NCI-H23 lung
NCI-H226 lung = tested on: NCI-H226 lung
OVCAR-4 ovarian = tested on: OVCAR-4 ovarian
NCI/ADR-RES ovarian = tested on: NCI/ADR-RES ovarian
SK-OV-3 ovarian = tested on: SK-OV-3 ovarian

Structure (SMILES)	TGI (M14 melanoma)	TGI (SNB-19 CNS)	TGI (SF-539 CNS)	TGI (CAKI-1 renal)	TGI (HCC-2998 colon)	TGI (KM12 colon)	TGI (UACC-257 melanoma)	TGI (RPMI-8226 leukemia)	TGI (NCI-H23 lung)	TGI (NCI-H226 lung)	TGI (OVCAR-4 ovarian)	TGI (NCI/ADR-RES ovarian)	TGI (SK-OV-3 ovarian)	GI50 (SNB-19 CNS)	GI50 (SF-539 CNS)	GI50 (KM12 colon)	GI50 (UACC-257 melanoma)	GI50 (NCI-H23 lung)
CS(=O)(=O)OCCN(CCOS(C)(=O)=O)c1ccc(C=Nc2cccc(Cl)c2)cc1	55.5 µM	> 46.2 µM	27.3 µM	1.56 µM	19.7 µM	> 100 µM	21.1 µM	32.6 µM	10.6 µM	11 µM	> 63.6 µM	27.3 µM	–	–	–	–	–	–
CC1(C)OC2[C@@H](CO[C@@]3([C@@H](O)CCO)OC(C)(C)O[C@@H]23)O1 (some centres undefined)	> 100 µM	> 100 µM	> 100 µM	> 100 µM	> 100 µM	> 100 µM	> 100 µM	> 100 µM	> 100 µM	> 100 µM	> 100 µM	> 100 µM	–	–	–	–	–	–
CCOC(=O)c1nnsc1N/N=C\c1ccc([N+](=O)[O-])cc1	> 100 µM	> 100 µM	–	–	> 100 µM	> 100 µM	> 100 µM	> 100 µM	> 100 µM	> 100 µM	> 100 µM	> 100 µM	> 100 µM	–	–	–	–	–
O=c1cc(CO)oc2c3c(cc(O)c12)OCC(COC1OC(CO)C(O)C(O)C1O)=CC3 (centres undefined)	> 100 µM	> 100 µM	> 100 µM	> 100 µM	> 100 µM	> 100 µM	> 100 µM	> 100 µM	> 100 µM	> 100 µM	> 100 µM	–	> 100 µM	–	–	–	–	–
CCOC(=O)c1[nH]c(Br)c(-c2ccc(OC)c(OC)c2)c1Br	16 µM	17.6 µM	0.0428 µM and 0.0128 µM	–	–	–	22.3 µM	16.6 µM	–	1.65 µM	–	> 100 µM	–	0.0137 µM	0.0116 µM	0.0172 µM	10 µM	7.83 µM
Cc1c2c3ccccc3nc-2n(C)c2ccccc12	20.5 µM	44.5 µM	10.8 µM	–	11.4 µM	7.91 µM	8.05 µM	52.7 µM	13.9 µM	8.52 µM	–	6.78 µM	7.22 µM	–	–	–	–	–
O=S(=O)(O)c1cc(N=Nc2c(O)ccc3ccccc23)ccc1/C=C/c1ccc(N=Nc2c(O)ccc3ccccc23)cc1S(=O)(=O)O	> 100 µM	> 100 µM	–	> 100 µM	–	> 100 µM	> 100 µM	> 100 µM	> 100 µM	> 100 µM	> 100 µM	> 100 µM	> 100 µM	–	–	–	–	–
C=C1C(=O)O[C@H]2C[C@@]3(COC(C)=O)C=COC=C(COC(=O)C(C)C)C3CC12 (some centres undefined)	–	> 100 µM	> 100 µM	> 100 µM	> 100 µM	> 100 µM	> 100 µM	63.6 µM	> 100 µM	> 100 µM	–	> 100 µM	–	–	–	–	–	–
CN(C(=O)Cc1ccccc1)n1cnn(CC(=O)OC(C)(C)C)c1=S	> 10 µM	> 10 µM	> 10 µM	> 10 µM	> 10 µM	> 10 µM	> 10 µM	> 10 µM	> 10 µM	–	> 10 µM	> 10 µM	> 10 µM	–	–	–	–	–
Brc1ccc(C[P+]2(c3ccccc3)CCCCC2)cc1	> 100 µM	> 100 µM	> 100 µM	–	> 100 µM	> 100 µM	73.8 µM	> 100 µM	> 100 µM	> 100 µM	–	–	> 100 µM	–	–	–	–	–
O=C(O)Cc1ccc(Nc2nc3cc(C(F)(F)F)ccc3nc2C(=O)O)cc1	> 100 µM	> 100 µM	> 100 µM	> 100 µM	–	> 100 µM	> 100 µM	–	> 100 µM	> 100 µM	> 100 µM	> 100 µM	> 100 µM	–	–	–	–	–
NC(=S)/N=C(/c1nc2ccc(Cl)cc2[nH]c1=O)C(O)c1ccccc1Cl (centres undefined)	> 100 µM	–	> 100 µM	–	> 100 µM	> 100 µM	> 100 µM	> 100 µM	> 100 µM	> 100 µM	> 100 µM	–	> 100 µM	–	–	–	–	–
Cc1ccc(NC=O)c(-c2c(N)[nH]c(=S)[nH]c2=O)c1	> 100 µM	> 100 µM	> 100 µM	> 100 µM	–	> 100 µM	> 100 µM	> 100 µM	> 100 µM	> 100 µM	–	> 100 µM	91.7 µM	–	–	–	–	–
CS(=O)(=O)c1nc(-c2cc3c(c(S(C)(=O)=O)n2)CCCC3)cc2c1CCCCC2	> 100 µM	> 100 µM	–	> 100 µM	–	> 100 µM	> 100 µM	> 100 µM	> 100 µM	> 100 µM	> 100 µM	> 100 µM	> 100 µM	–	–	–	–	–
Cc1ccc(SC2C(=O)C3CC(OCc4ccccc4)C2(C)C3(C)C)cc1 (centres undefined)	> 100 µM	> 100 µM	> 100 µM	–	> 100 µM	> 100 µM	–	–	> 100 µM	> 100 µM	–	> 100 µM	> 100 µM	–	–	–	–	–
O=C1c2ccccc2C(=O)c2cc(N=Nc3c(O)ccc4ccccc34)ccc21	> 100 µM	> 100 µM	–	> 100 µM	–	> 100 µM	> 100 µM	> 100 µM	> 100 µM	> 100 µM	> 100 µM	> 100 µM	> 100 µM	–	–	–	–	–
CCOC(=O)c1c(N=P(c2ccccc2)(c2ccccc2)c2ccccc2)nnc(-c2ccccc2)c1-c1ccccc1	> 100 µM	> 100 µM	> 100 µM	–	> 100 µM	> 100 µM	> 100 µM	–	> 100 µM	> 100 µM	> 100 µM	> 100 µM	> 100 µM	–	–	–	–	–
C#C/C=C\CCCC/C=C\C#CC#CCCCC#CC#C[C@H](COS(=O)(=O)O)OS(=O)(=O)O	> 100 µM	> 100 µM	> 100 µM	> 100 µM	> 100 µM	> 100 µM	> 100 µM	> 100 µM	> 100 µM	–	> 100 µM	> 100 µM	–	–	–	–	–	–
CCOc1ccc2[nH]c3c(C)c4ccncc4c(C)c3c2c1	2.9 µM	2.77 µM	2.94 µM	3.06 µM	2.74 µM	2.22 µM	3.24 µM	–	3.01 µM	4.24 µM	2.72 µM	–	16.4 µM	–	–	–	–	–
